{"source": "paper PMC12751141", "about": "“Disrupting α-Synuclein–ClpP interaction restores mitochondrial function and attenuates neuropathology in Parkinson’s disease models” (Molecular Neurodegeneration, 2025)", "key": {"ClpP (SH-SY5Y cells)": {"system": "ClpP (SH-SY5Y cells)", "assay": "ClpP protein level, western blot, SH-SY5Y cells", "format": "cell-based"}, "αSyn monomer": {"system": "αSyn monomer", "assay": "αSyn monomer ELISA, Tet-inducible αSyn SH-SY5Y cells", "format": "cell-based, human", "settings": "vs TAT", "description": "After one day incubation with doxycycline (1µM), αSyn tet-on inducible expression SHSY5Y cells were treated with TAT or CS2 peptides at 10 µM for another two days. The level of αSyn monomer released into culture medium was measured using LEGEND MAX human αSyn ELISA kit (448607, Biolegend). The level of extracellular and intracellular αSyn oligomers was measured using human alpha synuclein oligomer ELISA kit (MBS730762, Mybioresource)."}, "αSyn–ClpP binding": {"system": "αSyn–ClpP binding", "assay": "Immunoprecipitation of recombinant ClpP and αSyn in vitro", "design": "species or system human", "settings": "recombinant ClpP pre-incubated with peptide 30 min before αSyn; anti-ClpP IP; 3 independent experiments", "description": "The human recombinant WT- (#S-1001-2), A53T- (#S-1001-2), ΔNAC- (#S-1015-1) and ΔC- (#S-1012-1) αSyn and FITC-αSyn (S-1113-2) were purchased from rPeptide. The human recombinant αSyn pre-formed fibrils (PFF) (Type 1) (SPR-322) and ATTO-594-PFF (SPR-322B-A594) were purchased from StressMarq Biosciences (Bioactivity has been widely validated via various approaches, e.g. TEM, ThT).\nCells or tissues were lysed in total lysis buffer (50mM Tris-HCl, pH 7.5, 150mM NaCl, 1% Triton X-100, and protease inhibitor). Total protein lysates (800 µg) were incubated with the indicated antibodies overnight at 4 °C followed by the addition of protein A/G beads (sc-2003, Santa Cruz) for 2 h at 4 °C. Various recombinant αSyn and Clpp (500 ng) were incubated in in vitro interaction buffer (20mM Tris-HCl pH 7.5, 100mM KCl, 2mM MgCl2 and 0.1% Triton-X100) for 30 min at room temperature, and then incubated with indicated antibodies overnight at 4 °C followed by the addition of protein A/G beads for 2 h at 4 °C. The beads with immuno-precipitates were pulled down at 4000 g and washed four times with total lysis buffer/in vitro interaction buffer in the presence of 0.1% Triton X-100 and were analyzed by western blot analysis."}, "ClpP": {"system": "ClpP", "description": "ClpP peptidase activity in vitro was measured as previously described (REF). Briefly, human recombinant ClpP (10 µM, obtained from Dr. Aaron Schimmer, Princes Margartet Cancer Centre, Canada) were incubated in the reaction buffer (50mM Tris PH 8.0, 200mM KCl, 1mM DTT, 2mM ATP) under 37 °C for 10 min. For co-incubation with αSyn, recombinant ClpP and WT or C-terminal truncated or NAC-domain truncated recombinant αSyn (S-1001-1, S-1012-1, S-1015-1, rPeptide) were pre-incubated for 30 min under room temperature. Fluorescent substrate of ClpP, ac-WLA-AMC (50 µM), were then added in the reaction buffer. The fluorescence signal was read using TECAN infinite M1000 up for 30 min at excitation/emission wavelength 345/445. ClpP peptidase activity were determined as the slope of the regression line.\n(C) In vitro ClpP peptidase activity was measured in presence of TAT or CS2 peptide (50/100 µM). The fluorescence intensity of ac-WLA-AMC (50 µM), a fluorogenic substrate of ClpP, was measured (0-30 min). Quantification of ClpP activity (n = 5, one-way ANOVA with Tukey’s post-hoc test; data are mean ± SEM)."}, "SH-SY5Y cells": {"system": "SH-SY5Y cells", "assay": "Mitochondrial ROS (Mito-SOX) in SH-SY5Y cells", "format": "cell-based", "description": "Cells cultured on coverslips or 24-well plates were washed with DPBS and then incubated with 5 µM Mito-SOX™ Red (Invitrogen, M36008), a mitochondrial superoxide indicator, for 10 min at 37 °C. For cells cultured on coverslips, the images were visualized by microscope, and quantification of images was then carried out using NIH ImageJ software. At least 100 cells per group were counted in the analysis.\nThe bimolecular fluorescence was examined 24-hour after transfection (n = 3, one-way ANOVA with Tukey’s post-hoc test, scale bar = 30 μm). (D) Quantification of the concentration (ng/ml) of extracellular αSyn monomer and oligomer, and intracellular αSyn oligomer in Tet-inducible SH-SY5Y cells that were pre-treated with TAT or CS2 peptide 30-minute before adding doxycycline (Dox) to induce αSyn expression. The concentration of αSyn species was determined by ELISA (n = 4, one-way ANOVA with Tukey’s post-hoc test; data are mean ± SEM). (E) Representative images of Mito-SOX staining in SH-SY5Y cells that were pre-treated with TAT or CS2 peptide and transfected with split Venus-αSyn vectors. Mitochondrial ROS production was determined by Mito-SOX staining after 24-hour transfection (n = 4, two-tailed Student’s t test, scale bar = 30 μm)."}}, "note": "Entries after “also recorded” stand apart in the source; their conditions may differ."}
{"smiles": "CC(C)[C@H](NC(=O)CNC(=O)CNC(=O)CCCCCNC(=O)[C@H](CCCNC(=N)N)NC(=O)[C@H](CCCNC(=N)N)NC(=O)[C@H](CCCNC(=N)N)NC(=O)[C@H](CCC(N)=O)NC(=O)[C@H](CCCNC(=N)N)NC(=O)[C@H](CCCNC(=N)N)NC(=O)[C@H](CCCCN)NC(=O)[C@H](CCCCN)NC(=O)[C@H](CCCNC(=N)N)NC(=O)CNC(=O)[C@@H](N)Cc1ccc(O)cc1)C(=O)N[C@H](C(=O)N[C@H](C(=O)N[C@@H](C)C(=O)O)[C@@H](C)O)C(C)C", "note": "[CS2, TAT-C6-GGVVTA]", "values": [{"measurement": "ClpP level, Tet-inducible αSyn SH-SY5Y", "setting": "ClpP (SH-SY5Y cells); Tet-inducible αSyn-expressing SH-SY5Y, vs TAT, n = 3", "value": "marked increase in ClpP levels"}, {"measurement": "ClpP protein level, SH-SY5Y", "setting": "ClpP (SH-SY5Y cells); WT or A53T αSyn overexpression, 30 min pretreatment, n = 4–5 (CS1: n = 4)", "value": "significantly restored ClpP protein levels"}, {"measurement": "extracellular αSyn monomer", "setting": "αSyn monomer; 10 µM, two days, ELISA, n = 4", "value": "decreased levels"}, {"measurement": "intracellular αSyn monomer", "setting": "αSyn monomer", "value": "decreased levels"}, {"measurement": "αSyn–ClpP binding, recombinant", "setting": "αSyn–ClpP binding", "value": "significantly reduced αSyn–ClpP binding"}, {"measurement": "ClpP peptidase activity restoration, WT αSyn", "setting": "ClpP", "value": "restored ClpP peptidase activity"}, {"measurement": "ClpP peptidase activity, peptide alone", "setting": "ClpP", "value": "neither TAT nor CS2 alone impaired ClpP activity"}, {"measurement": "ClpP peptidase activity restoration, A53T αSyn", "setting": "ClpP; inhibition by A53T mutant αSyn, ac-WLA-AMC 50 µM, 0–30 min, representative of 4 experiments", "value": "restored ClpP peptidase activity"}, {"measurement": "mitochondrial ROS, ClpP-deficient cells", "setting": "SH-SY5Y cells; ClpPsh SH-SY5Y overexpressing αSyn, effect of reducing ROS, n = 13 areas/group", "value": "no protective effect; also recorded: not observed in ClpP-deficient cells"}, {"measurement": "mitochondrial ROS (Mito-SOX intensity)", "setting": "SH-SY5Y cells; SH-SY5Y expressing VN/VC-αSyn (CS1: WT αSyn), Mito-SOX 5 µM, vs TAT", "value": "significant reduction of the fluorescence intensity of Mito-SOX"}]}
